Laboratory results reported in publication PMC3183052, “Immunoprotectivity of HLA-A2 CTL Peptides Derived from Respiratory Syncytial Virus Fusion Protein in HLA-A2 Transgenic Mouse” (PLoS ONE, 2011).

Test system: peptide-loaded dendritic cells from HLA-Tg B6 mice
Test: In vitro CTL assay (CFSE/7-AAD) with pulmonary effector lymphocytes
Type: cell-based, mouse
Conditions: pulmonary effector lymphocytes of immunized, RSV-challenged mice; peptide-loaded CFSE-labeled DCs; E:T 10:1 and 50:1; 7-AAD/CFSE flow cytometry
Protocol: Dendritic cells (DCs) isolated from HLA-A*0201-Tg B6 mice were used as target cells for CTL assay. Briefly, tibia were isolated from 6–8 weeks old mice and rinsed with 75% alcohol before their incubation with lymphocyte culture medium (LCM, RPMI containing 5% FBS, 20 mM HEPES, 50 µM 2-mecaptoenthanol, 1× P/S). The myeloid tissues were removed from the tibia with LCM and filtrated through 40 µm cell strainer (BD Falcon). The filtrates were centrifuged at 1200 rpm for 5 minutes and the cell pellet was resuspended in 2 mL RBC lysis solution (eBioscience), and incubated for 5 minutes followed by addition of 10 mL of 1× PBS buffer to stop lysis. […]
A non-radioactive assay for cell-mediated cytotoxicity using a green fluorescent probe CFSE to label target cells in combination with 7-amino-actinomycin D (7AAD), a red fluorescent probe to label dead effectors and target cells, was used to assess the presence of RSV F protein-specific CTLs in spleens or lungs of the immunized animals. […] CFSE was measured in FL1 channel and 7-AAD in FL3 channel. The percentage of CFSE/7-AAD double positive target cells (i.e., DCs cell death) was analyzed. […]
Figure 5 Induction of pulmonary IFN-γ and CTL activity in peptide immunized transgenic mice challenged with RSV. At day 4 post RSV infection, lung homogenates were prepared and the following were measured. […]

YMLTNSELL [peptide 14, HLA-A*0201-restricted 9-mer synthetic peptide from F protein of RSV-B1 strain]
CTL activity, target cell lysis: efficient in target cell lysis
